Assay results as given in patent US10201523B2, “Use of wilforlide A for overcoming chemotherapy resistance” (WESTERN UNIVERSITY OF HEALTH SCIENCES, priority 2013, dated 2019).
Values joined by “and” are separate entries in the source; they are usually repeats but may differ in a detail not shown here. Equal entries are not always repeated. Where two headings read alike, the source gives them in different places.

Columns and labels:
[1] = test system: DU-145; assay: SRB cell viability assay, docetaxel IC50 with/without wilforlide A pretreatment; type: cell-based; settings: for IC50: Homo sapiens
[2] = test system: PC3; assay: SRB cell viability assay, docetaxel with/without wilforlide A pretreatment; settings: PC3
Protocol: Following the 72 hour wilforlide A treatment, a sulforhodamine B (SRB) assay was used to quantitate living cells. To perform the assay, the wilforlide A media was aspirated from each well, and replaced with a 10% solution of cold trichloroacetic acid (TCA) (Cat #: T6399, purchased from Sigma-Aldrich), and incubated for one hour at 4° C. After the TCA incubation, the TCA solution was aspirated, and the cells were washed five times with tap water. After removing the last wash, the plates were left with lids off at room temperature until the surfaces were dry, which took one to two hours. Then 50 μl of a 0.4% solution of sul-forhodamine B (SRB) sodium salt (Cat #: S9012, purchased from Sigma-Aldrich) was added to each well and the plates were incubated at room temperature for 20 to 30 minutes. Afterwards, the wells were washed five times with a 1% acetic acid solution in 10 mM TRIS base (Cat #: 161-0719, purchased from Bio-Rad Laboratories, Hercules, Calif.). The plates were subsequently left to dry for several hours or overnight. SRB that remained in the dried wells was solubilized by adding 100 μl of SRB solubilization solution (10 mM TRIS base) to each well, and placing the plates either on a gently-moving shaker or letting the plates remain stationary at room temperature until the SRB dissolves, which takes about five to ten minutes. The amount of SRB in each well, which correlated directly to the number of living cells at fixation, was determined spectrophotometrically at an absorbance of 565 nm by a microplate reader.
In these comparisons, the in vitro IC50 of a tested chemotherapeutic drug (D) in cell culture was compared to the drug's IC50 when drug treatment followed pretreatment of the cells with wilforlide A (Purchased from PI & PI Technology Inc. of Guangzhou, China or the National Institutes for Food and Drug Control in Beijing, China).
Triplicate wells were assigned to each experimental condition tested, and a 24 hour recovery period for the cells following the seeding of the wells was allowed. During the recovery period, the cells were incubated at 37° C. and 5% CO2.
At the end of the two hour pre-treatment period, 50 μl aliquots of the desired chemotherapeutic drug RPMI medium were added according to the amounts provided in Table 2.
After adding the various doses of chemotherapeutic drugs, as described above, the cells were incubated for an additional 72 hours under the same temperature and atmospheric conditions used for the pre-treatment step.
The cells were then incubated for 72 hours at 37° C. and 5% CO2. After the 72 hour incubation, sulforhodamine B (SRB) assays were performed as described in Example 1 to quantitate living cells.

[3] = no wilforlide A pre-Tx (control of Table 4), docetaxel 0.001 nM 72 h
[4] = no wilforlide A pre-Tx (control of Table 4), docetaxel 0.1 nM 72 h
[5] = no wilforlide A pre-Tx (control of Table 4), docetaxel 0.333 nM 72 h
[6] = no wilforlide A pre-Tx (control of Table 4), docetaxel 1 nM 72 h
[7] = no wilforlide A pre-Tx (control of Table 4), docetaxel 3.33 nM 72 h
[8] = no wilforlide A pre-Tx (control of Table 4), docetaxel 10 nM 72 h
[9] = no wilforlide A pre-Tx (control of Table 4), docetaxel 33.3 nM 72 h
[10] = no wilforlide A pre-Tx (control of Table 4), docetaxel 100 nM 72 h
[11] = no wilforlide A pre-Tx (control of Table 6), docetaxel 0.001 nM 72 h
[12] = no wilforlide A pre-Tx (control of Table 6), docetaxel 0.1 nM 72 h
[13] = no wilforlide A pre-Tx (control of Table 6), docetaxel 0.333 nM 72 h
[14] = no wilforlide A pre-Tx (control of Table 6), docetaxel 1 nM 72 h
[15] = no wilforlide A pre-Tx (control of Table 6), docetaxel 3.33 nM 72 h
[16] = no wilforlide A pre-Tx (control of Table 6), docetaxel 10 nM 72 h
[17] = no wilforlide A pre-Tx (control of Table 6), docetaxel 33.3 nM 72 h
[18] = no wilforlide A pre-Tx (control of Table 6), docetaxel 100 nM 72 h
[19] = no wilforlide A pre-Tx (control of Table 8), docetaxel 0.001 nM 72 h
[20] = no wilforlide A pre-Tx (control of Table 8), docetaxel 0.1 nM 72 h
[21] = no wilforlide A pre-Tx (control of Table 8), docetaxel 0.333 nM 72 h
[22] = no wilforlide A pre-Tx (control of Table 8), docetaxel 1 nM 72 h
[23] = no wilforlide A pre-Tx (control of Table 8), docetaxel 3.33 nM 72 h
[24] = no wilforlide A pre-Tx (control of Table 8), docetaxel 10 nM 72 h

SMILES: CC(=O)O[C@@]12CO[C@@H]1C[C@H](O)[C@@]1(C)C(=O)[C@H](O)C3=C(C)[C@@H](OC(=O)[C@H](O)[C@@H](NC(=O)OC(C)(C)C)c4ccccc4)C[C@@](O)([C@@H](OC(=O)c4ccccc4)[C@H]21)C3(C)C [docetaxel]
- IC50 ([1]; 72 h, read-out: Drug IC50 no pre-Tx): > 100 nM
- IC50 ([1]; wilforlide A 2.5 μg/ml pre-Tx, read-out: Drug IC50 after wilforlide A pre-Tx): 42.5 nM
- CE ([1]; chemosensitization effect, wilforlide A 2.5 μg/ml pre-Tx): >2.35
- % viable [2, 3]: 100.0%
- mean A [2, 3]: 1.839
- A at 565 nm ([2]; no wilforlide A pre-Tx (control of Table 4), docetaxel 0.001 nM 72 h, background = 0.043): 1.827 and 1.892 and 1.800
- % viable [2, 4]: 102.0%
- mean A [2, 4]: 1.876
- A at 565 nm ([2]; no wilforlide A pre-Tx (control of Table 4), docetaxel 0.1 nM 72 h, background = 0.043): 1.875 and 1.878
- % viable [2, 5]: 97.7%
- mean A [2, 5]: 1.796
- A at 565 nm ([2]; no wilforlide A pre-Tx (control of Table 4), docetaxel 0.333 nM 72 h, background = 0.043): 1.845 and 1.808 and 1.737
- % viable [2, 6]: 74.7%
- mean A [2, 6]: 1.374
- A at 565 nm ([2]; no wilforlide A pre-Tx (control of Table 4), docetaxel 1 nM 72 h, background = 0.043): 1.452 and 1.366 and 1.306
- % viable [2, 7]: 46.3%
- mean A [2, 7]: 0.851
- A at 565 nm ([2]; no wilforlide A pre-Tx (control of Table 4), docetaxel 3.33 nM 72 h, background = 0.043): 0.862 and 0.832 and 0.860
- % viable [2, 8]: 22.5%
- mean A [2, 8]: 0.415
- A at 565 nm ([2]; no wilforlide A pre-Tx (control of Table 4), docetaxel 10 nM 72 h, background = 0.043): 0.432 and 0.409 and 0.404
- % viable [2, 9]: 16.4%
- mean A [2, 9]: 0.303
- A at 565 nm ([2]; no wilforlide A pre-Tx (control of Table 4), docetaxel 33.3 nM 72 h, background = 0.043): 0.321 and 0.295 and 0.293
- % viable [2, 10]: 15.9%
- mean A [2, 10]: 0.293
- A at 565 nm ([2]; no wilforlide A pre-Tx (control of Table 4), docetaxel 100 nM 72 h, background = 0.043): 0.300 and 0.270 and 0.311
- % viable [2, 11]: 100.0%
- mean A [2, 11]: 1.952
- A at 565 nm ([2]; no wilforlide A pre-Tx (control of Table 6), docetaxel 0.001 nM 72 h, background = 0.044): 1.888 and 2.010 and 1.957
- % viable [2, 12]: 100.7%
- mean A [2, 12]: 1.966
- A at 565 nm ([2]; no wilforlide A pre-Tx (control of Table 6), docetaxel 0.1 nM 72 h, background = 0.044): 1.980 and 1.925 and 1.992
- % viable [2, 13]: 93.1%
- mean A [2, 13]: 1.817
- A at 565 nm ([2]; no wilforlide A pre-Tx (control of Table 6), docetaxel 0.333 nM 72 h, background = 0.044): 1.735 and 1.845 and 1.871
- % viable [2, 14]: 70.9%
- mean A [2, 14]: 1.384
- A at 565 nm ([2]; no wilforlide A pre-Tx (control of Table 6), docetaxel 1 nM 72 h, background = 0.044): 1.398 and 1.314 and 1.441
- % viable [2, 15]: 46.6%
- mean A [2, 15]: 0.909
- A at 565 nm ([2]; no wilforlide A pre-Tx (control of Table 6), docetaxel 3.33 nM 72 h, background = 0.044): 0.895 and 0.942 and 0.889
- % viable [2, 16]: 22.9%
- mean A [2, 16]: 0.447
- A at 565 nm ([2]; no wilforlide A pre-Tx (control of Table 6), docetaxel 10 nM 72 h, background = 0.044): 0.464 and 0.427 and 0.450
- % viable [2, 17]: 18.1%
- mean A [2, 17]: 0.354
- A at 565 nm ([2]; no wilforlide A pre-Tx (control of Table 6), docetaxel 33.3 nM 72 h, background = 0.044): 0.337 and 0.357 and 0.368
- % viable [2, 18]: 18.4%
- mean A [2, 18]: 0.360
- A at 565 nm ([2]; no wilforlide A pre-Tx (control of Table 6), docetaxel 100 nM 72 h, background = 0.044): 0.349 and 0.366 and 0.365
- % viable [2, 19]: 100.0%
- mean A [2, 19]: 1.990
- % viable [2, 20]: 101.2%
- mean A [2, 20]: 2.014
- % viable [2, 21]: 95.1%
- mean A [2, 21]: 1.892
- % viable [2, 22]: 71.2%
- mean A [2, 22]: 1.417
- % viable [2, 23]: 45.8%
- mean A [2, 23]: 0.911
- % viable [2, 24]: 23.0%
- mean A [2, 24]: 0.458
- % viable ([2]; no wilforlide A pre-Tx (control of Table 8), docetaxel 33.3 nM 72 h): 17.8%
